Experimental data: patent US8962650B2, “Therapeutic agent for tumor” (Eisai R&D Management Co., Ltd., priority 2011, dated 2015)

Test system: human melanoma cell line (A375)
Assay: Tumor proliferation inhibitory effect in nude mice transplanted with human melanoma cell line A375 (relative tumor volume)
Type: in vivo, mouse
Details: oral once daily 10 mL/kg (Compound A 1 mg/mL, PLX4032 10 mg/mL), A375 subcutaneous
Procedure: The present invention is described in more detail by way of Examples below. Example 1 Tumor Proliferation Inhibitory Effect of the Combined Use of Compound A and PLX4032 on a Human Melanoma Cell Line (A375)
Using five nude mice in one group (CAnN.Cg-Foxn1nu/CrlCrlj, female, Charles River Laboratories Japan, Inc.), the antitumor effect of administration of Compound A, PLX4032, or both of these compounds was evaluated. The human-derived melanoma cell line A375 (ATCC) was suspended in PBS (Wako Pure Chemical Industries, Ltd) at a density of 5×10^6 cells/ml, followed by thorough mixing. The resulting mixture was subcutaneously transplanted at the right flank of the body of each mouse in an amount of 0.1 mL. Fourteen days after transplantation, the major axis and the minor axis of a tumor were measured by a digital caliper (Digimatic™ caliper, Mitsutoyo Corporation). The mice were grouped so that the average value of tumor volume was nearly equal among the groups. Also, the tumor volume was calculated according to the equations below. Tumor volume (mm^3)=major axis (mm)×minor axis (mm)×minor axis (mm)/2
Compound A was dissolved in purified water at a concentration of 1 mg/mL. Also, PLX4032 was dissolved in DMSO at a concentration of 200 mg/ml. Further, the resulting solution was diluted 20-fold with a 1% aqueous solution of methylcellulose to prepare a 10 mg/mL PLX4032 suspension.
A control group, a Compound A group, a PLX4032 group, and a Compound A and PLX4032-combination group (hereinbelow, expressed as a combination group) were set up. The aqueous solution of Compound A or the PLX4032 suspension was orally administered to the mice in the Compound A group or the PLX4032 group, respectively, once daily at 10 mL/kg. To the combination group mice, the above drug solutions were each orally administered once daily at 10 mL/kg. The administration period was 23 days. Also, administration was not given to the control group mice.
The tumor volume was measured on the initial day of administration and on the 2nd, 5th, 7th, 9th, 12th, 14th, 16th, 19th, 21st, and 23rd days after initiation of administration. The ratio of the tumor volume on each day of measurement relative to the tumor volume on the initial day of administration was calculated as a relative tumor volume (hereinbelow, expressed as RTV). Further, the average value of RTV of mice in each group was calculated. The changes in the average value of RTV with time were shown in Table 1 and FIG. 1 and the value of each group on Day 23 was shown in FIG. 2.

[1] = Day 2 after initiation of administration
[2] = Day 5 after initiation of administration
[3] = Day 7 after initiation of administration
[4] = Day 9 after initiation of administration
[5] = Day 12 after initiation of administration
[6] = Day 14 after initiation of administration
[7] = Day 16 after initiation of administration
[8] = Day 19 after initiation of administration
[9] = Day 21 after initiation of administration
[10] = Day 23 after initiation of administration

SMILES	average relative tumor volume (RTV) [1]	average relative tumor volume (RTV) [2]	average relative tumor volume (RTV) [3]	average relative tumor volume (RTV) [4]	average relative tumor volume (RTV) [5]	average relative tumor volume (RTV) [6]	average relative tumor volume (RTV) [7]	average relative tumor volume (RTV) [8]	average relative tumor volume (RTV) [9]	average relative tumor volume (RTV) [10]
COc1cc2nccc(Oc3ccc(NC(=O)NC4CC4)c(Cl)c3)c2cc1C(N)=O [Compound A, 4-[3-chloro-4-(cyclopropylaminocarbonyl)aminophenoxy]-7-methoxy-6-quinolinecarboxamide]	1.77	2.62	3.40	3.85	5.12	5.40	6.30	7.89	9.16	10.17
CCCS(=O)(=O)Nc1ccc(F)c(C(=O)c2c[nH]c3ncc(-c4ccc(Cl)cc4)cc23)c1F [PLX4032, N-(3-{[5-(4-chlorophenyl)-1H-pyrrolo[2,3-b]pyridin-3-yl]carbonyl}-2,4-difluorophenyl)propane-1-sulfonamide]	0.98	0.94	1.00	1.13	1.46	1.38	1.52	1.63	1.80	1.93
